How the values were obtained:
Test in all cases: selective drug sensitivity score (sDSS, relative to normal bone marrow) (sDSS (score)); higher = more potent and effective on the cell line relative to normal bone marrow cells
Details in all cases: 72 h
MOLT-16 = test system: MOLT-16
RCH-ACV = test system: RCH-ACV
REH = test system: REH
P30-OHKUBO = test system: P30-OHKUBO
CCRF-CEM = test system: CCRF-CEM
MHH-CALL-2 = test system: MHH-CALL-2
COG-LL-402h = test system: COG-LL-402h
NALM-16 = test system: NALM-16
PF-382 = test system: PF-382
HAL-01 = test system: HAL-01
COG-LL-394h = test system: COG-LL-394h
SUP-B15 = test system: SUP-B15
COG-LL-319h = test system: COG-LL-319h
CCRF-HSB2 = test system: CCRF-HSB2
KASUMI-9 = test system: KASUMI-9
MHH-CALL-3 = test system: MHH-CALL-3
380 = test system: 380
KASUMI-10 = test system: KASUMI-10
RPMI-8402 = test system: RPMI-8402
MN-60 = test system: MN-60
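Further: ALL cell lines in 384-well plates, five doses spanning 10,000-fold, each plate scaled between vehicle and 100 µmol/L benzalkonium chloride controls, sDSS an adapted area-under-curve metric.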

SMILES | selective drug sensitivity score (MOLT-16) | selective drug sensitivity score (RCH-ACV) | selective drug sensitivity score (REH) | selective drug sensitivity score (P30-OHKUBO) | selective drug sensitivity score (CCRF-CEM) | selective drug sensitivity score (MHH-CALL-2) | selective drug sensitivity score (COG-LL-402h) | selective drug sensitivity score (NALM-16) | selective drug sensitivity score (PF-382) | selective drug sensitivity score (HAL-01) | selective drug sensitivity score (COG-LL-394h) | selective drug sensitivity score (SUP-B15) | selective drug sensitivity score (COG-LL-319h) | selective drug sensitivity score (CCRF-HSB2) | selective drug sensitivity score (KASUMI-9) | selective drug sensitivity score (MHH-CALL-3) | selective drug sensitivity score 380 | selective drug sensitivity score (KASUMI-10) | selective drug sensitivity score (RPMI-8402) | selective drug sensitivity score (MN-60)
Cc1sc2c(c1C)C(c1ccc(Cl)cc1)=N[C@@H](CC(=O)Nc1ccc(OCCOCCOCCOCCNc3cccc4c3C(=O)N(C3CCC(=O)NC3=O)C4=O)cc1)c1nnc(C)n1-2 (stereo not given in full) [ARV-825] (top concentration 300 nM) | 1.44 | 4.44 | -0.26 | 3.74 | -2.66 | 4.94 | 3.74 | 0.74 | 0.14 | -12.1 | -0.96 | 6.14 | 4.04 | 1.14 | 6.64 | 7.44 | 2.04 | 3.84 | 1.04 | -1.56
COc1cc(OC2CCN(C)CC2)ccc1Nc1ncc2c(n1)n(C1CCCC1)c(=O)n2C [AZ3146] (top concentration 10000 nM) | 0.44 | 1.24 | 1.14 | -0.06 | 0.94 | 1.94 | -0.56 | -2.56 | -0.86 | 2.24 | 1.04 | 1.34 | 7.04 | 1.84 | -0.36 | -4.16 | -2.86 | 3.64 | 1.94 | -0.16
CN(C)CCCOc1ccc(-c2ccc3ncc4c(c3c2)n(C2CCOCC2)c(=O)n4C)cn1 [AZD0156] (top concentration 1000 nM) | 0.54 | 7.24 | 0.84 | 2.04 | 1.74 | 1.84 | 3.34 | -0.06 | 0.64 | 0.64 | -0.06 | 1.14 | 3.84 | 0.94 | 1.04 | -0.06 | 2.24 | -0.06 | 0.14 | -0.06
N#Cc1ccc2[nH]c(O)c(-c3ccc(CN4CCOCC4)cn3)c2c1 [AZD-1080] (top concentration 10000 nM) | 0.38 | 3.98 | 8.28 | 1.78 | -0.02 | -0.02 | 2.08 | 0.48 | -0.02 | -0.02 | -0.02 | 5.08 | 6.28 | 1.08 | 4.08 | 5.18 | -0.02 | 1.88 | -0.02 | -0.02
CN(C)C/C=C/C(=O)Nc1cc2c(Nc3ccc(F)c(Cl)c3)ncnc2cc1O[C@H]1CCOC1 [Afatinib] (top concentration 1000 nM) | -0.34 | 1.26 | 5.46 | 1.56 | 0.66 | 0.16 | 0.46 | -0.84 | -0.84 | 3.06 | -0.84 | -0.84 | -0.84 | 1.96 | 2.16 | 3.96 | -0.84 | -0.84 | -0.84 | -0.84
O=C(Nc1ccc(OC(F)(F)Cl)cc1)c1cnc(N2CC[C@@H](O)C2)c(-c2cc[nH]n2)c1 [Asciminib] (top concentration 1000 nM) | 8.42 | -1.98 | -1.98 | -0.58 | -1.98 | -1.98 | -1.98 | -1.98 | -1.78 | -0.88 | 4.52 | 26.2 | 10 | -1.98 | -1.68 | -0.98 | 1.92 | -1.98 | -1.98 | -1.98
CC[C@@H]1C(=O)N(C)c2cnc(Nc3ccc(C(=O)NC4CCN(C)CC4)cc3OC)nc2N1C1CCCC1 [BI-2536] (top concentration 1000 nM) | 9.04 | 15.5 | 16.4 | 18.3 | 20.1 | 16.2 | 17.2 | 14.5 | 18.7 | 3.64 | 9.44 | 22.9 | 23.6 | 20.1 | 20.3 | 7.94 | 18.3 | 11.9 | 22.4 | -0.16
Cc1ccc(NC(=O)c2ccc(CN3CC[C@H](N(C)C)C3)c(C(F)(F)F)c2)cc1Nc1nccc(-c2cncnc2)n1 [Bafetinib] (top concentration 1000 nM) | 0 | 0.4 | 0.2 | 0 | 0 | 0 | 0.5 | 0 | 0 | 0 | 3 | 21.9 | 1.9 | 9.9 | 0 | 0 | 0 | 0 | 0 | 4
CC[C@H](NC(=O)[C@H](C)NC)C(=O)N1C[C@@H](O)C[C@H]1Cc1c(-c2[nH]c3cc(F)ccc3c2C[C@@H]2C[C@H](O)CN2C(=O)[C@H](CC)NC(=O)[C@H](C)NC)[nH]c2cc(F)ccc12 [Birinapant] (top concentration 1000 nM) | -1.7 | 3.1 | 1.1 | -0.1 | 1.4 | 8.7 | -5.1 | 0.5 | -4.6 | -5.1 | 16.2 | -3.7 | 14.5 | 5.7 | -5.1 | -5.1 | -5.1 | -4.9 | -3.2 | 1.4

From the supplement of paper PMC8967900
